Test results reported in patent publication US12281149B2, “Modulators of G-protein coupled receptors” (priority 2021, dated 2025).
pEC50: −log10 of the molar value. Where two headings read alike, the source gives them in different places. *1 amine or outer side, *2 acyl side, *3 side chain or, on linkers, in order; H or OH if unused. Where a SMILES comes first, the peptide text is derived from it. Side-chain parts run from the residue outwards. [ ]: non-standard residue; d: D form. The star is where a group is joined. C20 diacid = O=C(O)CCCCCCCCCCCCCCCCCCC(=O)*; αMePhe(2-F) = C[C@](N)(Cc1ccccc1F)C(=O)O; γGlu = O=C(O)[C@H](CCC(=O)[*:2])N[*:1]; X34 = CCC(CC)(C(=O)*)c1ccc(Cl)c(Cl)c1; X48 = CC(C)[C@H](C(=O)*)c1ccc(Cl)cc1; X39 = CCC(CC)(C(=O)*)c1ccc(Cl)cc1; X62 = O=C(C1(c2cccc(Cl)c2)CCCC1)*; X46 = O=C(C1(c2ccccc2)CCOCC1)*; AEEA = NCCOCCOCC(=O)O; Aib = CC(C)(N)C(=O)O; βAla = NCCC(=O)O

Experiments:
Format in all cases: cell-based
[1] = biological target: T1, GIP receptor (Homo sapiens, UniProt P48546); experiment: PathHunter β-arrestin assay, GIP receptor; parameters: host or cells: PathHunter CHO-K1 GIPR β-Arrestin Cell Line
T1 sequence (P48546 22-466): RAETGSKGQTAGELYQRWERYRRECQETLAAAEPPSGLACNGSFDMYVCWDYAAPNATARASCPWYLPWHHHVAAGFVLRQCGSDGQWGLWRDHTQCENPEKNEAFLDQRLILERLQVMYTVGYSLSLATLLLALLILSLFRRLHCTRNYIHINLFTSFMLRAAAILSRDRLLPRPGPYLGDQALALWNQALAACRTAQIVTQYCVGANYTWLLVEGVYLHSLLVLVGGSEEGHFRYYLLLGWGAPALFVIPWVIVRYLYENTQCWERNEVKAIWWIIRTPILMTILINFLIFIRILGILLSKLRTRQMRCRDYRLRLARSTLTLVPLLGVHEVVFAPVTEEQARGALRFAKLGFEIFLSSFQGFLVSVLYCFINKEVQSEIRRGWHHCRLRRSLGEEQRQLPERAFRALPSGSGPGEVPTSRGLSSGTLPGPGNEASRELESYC
Protocol: β-arrestin-2 recruitment for GLP-1 receptor or GIP receptor was measured using the DiscoverX PathHunter Detection Kit and PathHunter® CHO-K1 GLPIR β-Arrestin Cell Line or PathHunter® CHO-K1 GIPR β-Arrestin Cell Line, respectively). Briefly, cells were grown in Ham's F12 Nutrient Mix with 10% FBS and lifted with Cell dissociation buffer, Enzyme free, PBS based (ThermoFisher). Harvested cells were pelleted and resuspended in Assay Complete Cell Plating Reagent 2 and 5000 cells per well were plated in tissue culture treated 384-well small volume white assay plates. Plates were then incubated at 37° C. and 5% CO2 overnight. The media was then replaced with fresh Assay Complete Cell Plating Reagent 2. Cells were then treated with 10 nl compound in DMSO using an ECHO 550 acoustic dispenser (Labcyte) in a 20-point dose response format in duplicate for 90 min at 37° C. The assay was then completed according to the manufacturer's instructions. Luminescence was measured using a Perkin Elmer Envision plate reader. Raw data was normalized to the maximum signal from GLP-1 or GIP (high) and DMSO (low). Dose response curves were analyzed using GraphPad Prism 9.0.

[2] = biological target: T2, GLP-1 receptor (Homo sapiens, UniProt P43220); experiment: PathHunter β-arrestin assay, GLP-1 receptor; parameters: host or cells: PathHunter CHO-K1 GLP1R β-Arrestin Cell Line
T2 sequence (P43220 24-463): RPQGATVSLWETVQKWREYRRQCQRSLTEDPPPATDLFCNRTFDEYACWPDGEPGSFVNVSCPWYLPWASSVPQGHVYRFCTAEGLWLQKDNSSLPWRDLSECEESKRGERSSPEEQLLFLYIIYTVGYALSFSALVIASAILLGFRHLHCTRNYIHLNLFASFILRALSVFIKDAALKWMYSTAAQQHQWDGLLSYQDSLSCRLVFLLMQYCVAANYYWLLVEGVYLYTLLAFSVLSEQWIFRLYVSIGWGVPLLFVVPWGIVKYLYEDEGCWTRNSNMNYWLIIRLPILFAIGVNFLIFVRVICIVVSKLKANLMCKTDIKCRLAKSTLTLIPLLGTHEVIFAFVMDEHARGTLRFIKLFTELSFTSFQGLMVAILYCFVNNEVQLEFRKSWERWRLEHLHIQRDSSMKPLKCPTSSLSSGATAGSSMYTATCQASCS

[3] = biological target: T2, GLP-1 receptor; experiment: HitHunter cAMP assay, GLP-1 receptor; conditions: for Emax: read-out: Emax GLP-1R
[4] = biological target: T1, GIP receptor; experiment: HitHunter cAMP assay, GIP receptor; conditions: for Emax: read-out: Emax GIP-1R
[5] = β-arrestin-2 recruitment, PathHunter CHO-K1 GIPR β-Arrestin Cell Line, 90 min at 37° C., normalized to GIP, read-out: GIPR β Arrestin EC50
[6] = β-arrestin-2 recruitment, PathHunter CHO-K1 GLP1R β-Arrestin Cell Line, 90 min at 37° C., normalized to GLP-1, read-out: GLP-1R β Arrestin EC50
[7] = CHO cells stably expressing human GLP-1 receptor, cAMP accumulation, 30 min, read-out: EC50 GLP-1R
[8] = CHO cells, cAMP, normalized to maximum signal from GLP-1 (high) and DMSO (low)
[9] = CHO cells stably expressing GIP receptor, cAMP accumulation, 30 min, read-out: EC50 GIP-1R
[10] = CHO cells, cAMP, normalized to maximum signal from GIP (high) and DMSO (low)

Structure (SMILES) | pEC50 [1, 5] | pEC50 [2, 6] | pEC50 [3, 7] | Emax [3, 8] | pEC50 [4, 9] | Emax [4, 10] | pEC50 [1] | pEC50 [2] | pEC50 [3] | Emax ([3]; CHO) | pEC50 [4] | Emax ([4]; CHO)
CC[C@H](C)[C@H](NC(=O)[C@H](CC(C)C)NC(=O)[C@H](Cc1c[nH]c2ccccc12)NC(=O)[C@H](CCC(N)=O)NC(=O)[C@@H](NC(=O)[C@H](Cc1ccccc1)NC(=O)[C@H](C)NC(=O)[C@H](CCCCNC(=O)COCCOCCNC(=O)COCCOCCNC(=O)CC[C@H](NC(=O)CCCCCCCCCCCCCCCCCCC(=O)O)C(=O)O)NC(=O)[C@H](CCC(N)=O)NC(=O)[C@H](C)NC(=O)[C@@H](NC(=O)[C@H](CCCCN)NC(=O)[C@H](CC(=O)O)NC(=O)[C@H](CC(C)C)NC(=O)C(C)(C)NC(=O)[C@@H](NC(=O)[C@H](CO)NC(=O)[C@H](Cc1ccc(O)cc1)NC(=O)[C@H](CC(=O)O)NC(=O)[C@H](CO)NC(=O)[C@@H](NC(=O)[C@H](Cc1ccccc1)NC(=O)[C@@H](NC(=O)CNC(=O)[C@H](CCC(=O)O)NC(=O)CCNC(=O)C(CC)(CC)c1ccc(Cl)c(Cl)c1)[C@@H](C)O)[C@@H](C)O)[C@@H](C)CC)[C@@H](C)CC)C(C)C)C(=O)N[C@@H](C)C(=O)NCC(=O)NCC(=O)N1CCC[C@H]1C(=O)N[C@@H](CO)C(=O)N[C@@H](CO)C(=O)NCC(=O)N[C@@H](C)C(=O)N1CCC[C@H]1C(=O)N1CCC[C@H]1C(=O)N1CCC[C@H]1C(=O)N[C@@H](CO)C(N)=O [Compound 175] ({X34-βAla}-EGTFTSDYSI[Aib]LDKIAQK([AEEA-AEEA-γGlu-C20 diacid])AFVQWLIAGGPSSGAPPPS-NH2) | > 6.00 | < 6.00 | 8.00 to 9.00 | 94% | 8.00 to 9.00 | 110% | – | – | – | – | – | –
CC[C@H](C)[C@H](NC(=O)[C@H](CC(C)C)NC(=O)[C@H](Cc1c[nH]c2ccccc12)NC(=O)[C@H](CCC(N)=O)NC(=O)[C@@H](NC(=O)[C@H](Cc1ccccc1)NC(=O)[C@H](C)NC(=O)[C@H](CCCCNC(=O)COCCOCCNC(=O)COCCOCCNC(=O)CC[C@H](NC(=O)CCCCCCCCCCCCCCCCCCC(=O)O)C(=O)O)NC(=O)[C@H](CCC(N)=O)NC(=O)[C@H](C)NC(=O)[C@@H](NC(=O)[C@H](CCCCN)NC(=O)[C@H](CC(=O)O)NC(=O)[C@H](CC(C)C)NC(=O)C(C)(C)NC(=O)[C@@H](NC(=O)[C@H](CO)NC(=O)[C@H](Cc1ccc(O)cc1)NC(=O)[C@H](CC(=O)O)NC(=O)[C@H](CO)NC(=O)[C@@H](NC(=O)[C@H](Cc1ccccc1)NC(=O)[C@@H](NC(=O)CNC(=O)[C@H](CCC(=O)O)NC(=O)CCNC(=O)C(CC)(CC)c1ccc(Cl)cc1)[C@@H](C)O)[C@@H](C)O)[C@@H](C)CC)[C@@H](C)CC)C(C)C)C(=O)N[C@@H](C)C(=O)NCC(=O)NCC(=O)N1CCC[C@H]1C(=O)N[C@@H](CO)C(=O)N[C@@H](CO)C(=O)NCC(=O)N[C@@H](C)C(=O)N1CCC[C@H]1C(=O)N1CCC[C@H]1C(=O)N1CCC[C@H]1C(=O)N[C@@H](CO)C(N)=O [Compound 176] ({X39-βAla}-EGTFTSDYSI[Aib]LDKIAQK([AEEA-AEEA-γGlu-C20 diacid])AFVQWLIAGGPSSGAPPPS-NH2) | > 6.00 | < 6.00 | 8.00 to 9.00 | 110% | 8.00 to 9.00 | 110% | – | – | – | – | – | –
CC[C@H](C)[C@H](NC(=O)[C@H](CC(C)C)NC(=O)[C@H](Cc1c[nH]c2ccccc12)NC(=O)[C@H](CCC(N)=O)NC(=O)[C@@H](NC(=O)[C@H](Cc1ccccc1)NC(=O)[C@H](C)NC(=O)[C@H](CCCCNC(=O)COCCOCCNC(=O)COCCOCCNC(=O)CC[C@H](NC(=O)CCCCCCCCCCCCCCCCCCC(=O)O)C(=O)O)NC(=O)[C@H](CCC(N)=O)NC(=O)[C@H](C)NC(=O)[C@@H](NC(=O)[C@H](CCCCN)NC(=O)[C@H](CC(=O)O)NC(=O)[C@H](CC(C)C)NC(=O)C(C)(C)NC(=O)[C@@H](NC(=O)[C@H](CO)NC(=O)[C@H](Cc1ccc(O)cc1)NC(=O)[C@H](CC(=O)O)NC(=O)[C@H](CO)NC(=O)[C@@H](NC(=O)[C@H](Cc1ccccc1)NC(=O)[C@@H](NC(=O)CNC(=O)[C@H](CCC(=O)O)NC(=O)CCNC(=O)[C@H](c1ccc(Cl)cc1)C(C)C)[C@@H](C)O)[C@@H](C)O)[C@@H](C)CC)[C@@H](C)CC)C(C)C)C(=O)N[C@@H](C)C(=O)NCC(=O)NCC(=O)N1CCC[C@H]1C(=O)N[C@@H](CO)C(=O)N[C@@H](CO)C(=O)NCC(=O)N[C@@H](C)C(=O)N1CCC[C@H]1C(=O)N1CCC[C@H]1C(=O)N1CCC[C@H]1C(=O)N[C@@H](CO)C(N)=O [Compound 177] ({X48-βAla}-EGTFTSDYSI[Aib]LDKIAQK([AEEA-AEEA-γGlu-C20 diacid])AFVQWLIAGGPSSGAPPPS-NH2) | – | – | – | – | – | – | < 6.00 | < 6.00 | 8.00 to 9.00 | 95% | 7.00 to 8.00 | 94%
CC[C@H](C)[C@H](NC(=O)[C@H](CC(C)C)NC(=O)[C@H](Cc1c[nH]c2ccccc12)NC(=O)[C@H](CCC(N)=O)NC(=O)[C@@H](NC(=O)[C@H](Cc1ccccc1)NC(=O)[C@H](C)NC(=O)[C@H](CCCCNC(=O)COCCOCCNC(=O)COCCOCCNC(=O)CC[C@H](NC(=O)CCCCCCCCCCCCCCCCCCC(=O)O)C(=O)O)NC(=O)[C@H](CCC(N)=O)NC(=O)[C@H](C)NC(=O)[C@@H](NC(=O)[C@H](CCCCN)NC(=O)[C@H](CC(=O)O)NC(=O)[C@H](CC(C)C)NC(=O)C(C)(C)NC(=O)[C@@H](NC(=O)[C@H](CO)NC(=O)[C@H](Cc1ccc(O)cc1)NC(=O)[C@H](CC(=O)O)NC(=O)[C@H](CO)NC(=O)[C@@H](NC(=O)[C@](C)(Cc1ccccc1F)NC(=O)[C@@H](NC(=O)CNC(=O)[C@H](CCC(=O)O)NC(=O)CCNC(=O)C1(c2ccccc2)CCOCC1)[C@@H](C)O)[C@@H](C)O)[C@@H](C)CC)[C@@H](C)CC)C(C)C)C(=O)N[C@@H](C)C(=O)NCC(=O)NCC(=O)N1CCC[C@H]1C(=O)N[C@@H](CO)C(=O)N[C@@H](CO)C(=O)NCC(=O)N[C@@H](C)C(=O)N1CCC[C@H]1C(=O)N1CCC[C@H]1C(=O)N1CCC[C@H]1C(=O)N[C@@H](CO)C(N)=O [Compound 178] ({X46-βAla}-EGT[αMePhe(2-F)]TSDYSI[Aib]LDKIAQK([AEEA-AEEA-γGlu-C20 diacid])AFVQWLIAGGPSSGAPPPS-NH2) | > 6.00 | < 6.00 | 9.00 to 10.00 | 98% | 9.00 to 10.00 | 105% | – | – | – | – | – | –
CC[C@H](C)[C@H](NC(=O)[C@H](CC(C)C)NC(=O)[C@H](Cc1c[nH]c2ccccc12)NC(=O)[C@H](CCC(N)=O)NC(=O)[C@@H](NC(=O)[C@H](Cc1ccccc1)NC(=O)[C@H](C)NC(=O)[C@H](CCCCNC(=O)COCCOCCNC(=O)COCCOCCNC(=O)CC[C@H](NC(=O)CCCCCCCCCCCCCCCCCCC(=O)O)C(=O)O)NC(=O)[C@H](CCC(N)=O)NC(=O)[C@H](C)NC(=O)[C@@H](NC(=O)[C@H](CCCCN)NC(=O)[C@H](CC(=O)O)NC(=O)[C@H](CC(C)C)NC(=O)C(C)(C)NC(=O)[C@@H](NC(=O)[C@H](CO)NC(=O)[C@H](Cc1ccc(O)cc1)NC(=O)[C@H](CC(=O)O)NC(=O)[C@H](CO)NC(=O)[C@@H](NC(=O)[C@](C)(Cc1ccccc1F)NC(=O)[C@@H](NC(=O)CNC(=O)[C@H](CCC(=O)O)NC(=O)CCNC(=O)C1(c2cccc(Cl)c2)CCCC1)[C@@H](C)O)[C@@H](C)O)[C@@H](C)CC)[C@@H](C)CC)C(C)C)C(=O)N[C@@H](C)C(=O)NCC(=O)NCC(=O)N1CCC[C@H]1C(=O)N[C@@H](CO)C(=O)N[C@@H](CO)C(=O)NCC(=O)N[C@@H](C)C(=O)N1CCC[C@H]1C(=O)N1CCC[C@H]1C(=O)N1CCC[C@H]1C(=O)N[C@@H](CO)C(N)=O [Compound 179] ({X62-βAla}-EGT[αMePhe(2-F)]TSDYSI[Aib]LDKIAQK([AEEA-AEEA-γGlu-C20 diacid])AFVQWLIAGGPSSGAPPPS-NH2) | > 6.00 | < 6.00 | 9.00 to 10.00 | 100% | 9.00 to 10.00 | 106% | – | – | – | – | – | –
